Measured values as given in patent US10100010B1, “4-methoxy pyrrole derivatives or salts thereof and pharmaceutical composition comprising the same” (Daewoong Pharmaceutical Co., Ltd., priority 2015, dated 2018).

Columns and labels:
Assay type in all cases: cell-based
H. pylori = experiment: Antimicrobial activity against H. pylori, MIC by agar dilution method; details: Helicobacter pylori
5-HT2A = 5-HT2A (Homo sapiens, UniProt P28223); experiment: GPCR Calcium Flux assay (FLIPR tetra, Eurofins), 5-HT2A
M1 = molecular target: T1, M1 (Homo sapiens, UniProt P11229); experiment: GPCR Calcium Flux assay (FLIPR tetra, Eurofins), M1
T1 sequence (P11229 1-460): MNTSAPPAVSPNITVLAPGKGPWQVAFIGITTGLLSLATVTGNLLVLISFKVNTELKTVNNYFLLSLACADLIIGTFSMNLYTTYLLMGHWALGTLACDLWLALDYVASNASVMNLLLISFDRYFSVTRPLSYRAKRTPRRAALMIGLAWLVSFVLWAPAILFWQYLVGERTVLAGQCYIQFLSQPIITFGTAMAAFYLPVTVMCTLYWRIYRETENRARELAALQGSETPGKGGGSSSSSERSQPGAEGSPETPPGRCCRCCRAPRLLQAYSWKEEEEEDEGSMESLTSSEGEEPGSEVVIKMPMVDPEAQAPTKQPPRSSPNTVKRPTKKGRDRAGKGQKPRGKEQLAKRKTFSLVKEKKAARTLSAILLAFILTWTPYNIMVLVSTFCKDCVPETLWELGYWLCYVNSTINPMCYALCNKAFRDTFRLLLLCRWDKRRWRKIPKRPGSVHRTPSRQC

5-HT2A, sequence (P28223 whole entry): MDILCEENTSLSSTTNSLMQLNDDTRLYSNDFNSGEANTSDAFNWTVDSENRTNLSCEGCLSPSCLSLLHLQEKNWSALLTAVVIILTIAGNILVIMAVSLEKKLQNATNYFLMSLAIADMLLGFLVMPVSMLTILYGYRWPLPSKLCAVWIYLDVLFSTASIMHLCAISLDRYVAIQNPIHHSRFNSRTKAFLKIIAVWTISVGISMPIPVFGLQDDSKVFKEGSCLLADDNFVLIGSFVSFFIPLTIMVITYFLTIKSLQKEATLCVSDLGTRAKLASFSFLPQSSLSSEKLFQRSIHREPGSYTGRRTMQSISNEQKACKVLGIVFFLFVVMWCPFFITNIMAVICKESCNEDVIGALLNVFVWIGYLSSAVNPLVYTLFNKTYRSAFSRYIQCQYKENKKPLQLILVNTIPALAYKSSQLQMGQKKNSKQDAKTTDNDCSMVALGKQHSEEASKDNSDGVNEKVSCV

Question: Which results are given for `CNCc1cn(S(=O)(=O)c2cccc(F)c2)c(-c2c(F)cc(F)cc2F)c1OC.Cl` [Example 22, 1-(1-((3-fluorophenyl)sulfonyl)-4-methoxy-5-(2,4,6-trifluorophenyl)-1H-pyrrol-3-yl)-N-methylmethanamine hydrochloride]?
Answer: MIC (H. pylori; strain 45 (HPKTCC B0004)): 75 µg/mL; MIC (H. pylori; strain 51 (HPKTCC B0006)): 75 µg/mL; MIC (H. pylori; strain 52 (HPKTCC B0007)): 75 µg/mL; MIC (H. pylori; strain 92-33-1 (HPKTCC B0182)): 75 µg/mL; MIC (H. pylori; strain 92-82-1 (HPKTCC B0233)): 75 µg/mL; MIC (H. pylori; strain 92-157 (HPKTCC B0152)): 75 µg/mL; MIC (H. pylori; strain 118 (HPKTCC B0017)): 75 µg/mL; MIC (H. pylori; strain 126 (HPKTCC B0020)): 75 µg/mL; MIC (H. pylori; strain 127 (HPKTCC B0021)): 75 µg/mL; MIC (H. pylori; strain 133 (HPKTCC B0023)): 75 µg/mL; MIC (H. pylori; strain 134 (HPKTCC B0024)): 75 µg/mL; MIC (H. pylori; strain 138 (HPKTCC B0026)): 75 µg/mL; MIC (H. pylori; strain 156 (HPKTCC B0035)): 75 µg/mL; MIC (H. pylori; strain 159 (HPKTCC B0037)): 75 µg/mL; MIC (H. pylori; strain 164 (HPKTCC B0040)): 75 µg/mL; MIC (H. pylori; strain 183 (HPKTCC B0047)): 75 µg/mL; MIC (H. pylori; strain 193 (HPKTCC B0051)): 75 µg/mL; MIC (H. pylori; strain 198 (HPKTCC B0055)): 75 µg/mL; MIC (H. pylori; strain 205 (HPKTCC B0058)): 75 µg/mL; MIC (H. pylori; strain 210 (HPKTCC B0061)): 75 µg/mL; MIC (H. pylori; strain 221 (HPKTCC B0068)): 75 µg/mL; MIC (H. pylori; strain 228 (HPKTCC B0071)): 75 µg/mL; MIC (H. pylori; strain 235 (HPKTCC B0074)): 75 µg/mL; MIC (H. pylori; strain 236 (HPKTCC B0075)): 75 µg/mL; MIC (H. pylori; strain 302 (HPKTCC B0088)): 75 µg/mL; MIC (H. pylori; strain 26695 (HPKTCC B0100)): 75 µg/mL; MIC (H. pylori; strain 26695 CHGKG (HPKTCC B3412)): 150 µg/mL; MIC (H. pylori; strain CH24 (HPKTCC B0508)): 75 µg/mL; MIC (H. pylori; strain CH94 (HPKTCC B0582)): 75 µg/mL; MIC (H. pylori; strain CH173 (HPKTCC B0494)): 75 µg/mL; MIC (H. pylori; strain CH175 (HPKTCC B0496)): 75 µg/mL; MIC (H. pylori; strain CH189 (HPKTCC B0498)): 75 µg/mL; MIC (H. pylori; strain CH192 (HPKTCC B0500)): 75 µg/mL; MIC (H. pylori; strain CH272 (HPKTCC B0516)): 75 µg/mL; MIC (H. pylori; strain CH369 (HPKTCC B0522)): 75 µg/mL; MIC (H. pylori; strain CH381 (HPKTCC B0524)): 75 µg/mL; MIC (H. pylori; strain CH498 (HPKTCC B0536)): 75 µg/mL; MIC (H. pylori; strain CH502 (HPKTCC B0537)): 75 µg/mL; MIC (H. pylori; strain CH523 (HPKTCC B0541)): 75 µg/mL; MIC (H. pylori; strain CH541 (HPKTCC B0548)): 75 µg/mL; MIC (H. pylori; strain CH588 (HPKTCC B0556)): 75 µg/mL; MIC (H. pylori; strain CH609 (HPKTCC B0558)): 75 µg/mL; MIC (H. pylori; strain CH612 (HPKTCC B0559)): 75 µg/mL; MIC (H. pylori; strain CH631 (HPKTCC B0560)): 75 µg/mL; MIC (H. pylori; strain CH635 (HPKTCC B0562)): 75 µg/mL; MIC (H. pylori; strain CH674 (HPKTCC B0564)): 75 µg/mL; MIC (H. pylori; strain CH1056 (HPKTCC B0487)): 75 µg/mL; MIC (H. pylori; strain CJH7 (HPKTCC B0606)): 75 µg/mL; MIC (H. pylori; strain CJH8 (HPKTCC B0608)): 75 µg/mL; MIC (H. pylori; strain CJH9 (HPKTCC B0610)): 75 µg/mL; MIC (H. pylori; strain CJH10 (HPKTCC B0587)): 75 µg/mL; MIC (H. pylori; strain CJH13 (HPKTCC B0589)): 75 µg/mL; MIC (H. pylori; strain CJH31 (HPKTCC B0594)): 75 µg/mL; MIC (H. pylori; strain CJH33 (HPKTCC B0595)): 75 µg/mL; MIC (H. pylori; strain CJH43 (HPKTCC B0596)): 75 µg/mL; MIC (H. pylori; strain CJH50 (HPKTCC B0599)): 75 µg/mL; MIC (H. pylori; strain G88001 (HPKTCC B0722)): 75 µg/mL; MIC (H. pylori; strain G88007 (HPKTCC B0725)): 75 µg/mL; MIC (H. pylori; strain J99 (HPKTCC B0748)): 75 µg/mL; MIC (H. pylori; strain SS1-P-4′ (HPKTCC B3392)): 75 µg/mL; IC50 (5-HT2A; 8 concentrations 10 to 0.0006 uM, read-out: 50% inhibitory concentration (IC50) 5-HT2A): 33 nM; inhibition at 10 µM (5-HT2A; single concentration of 10 uM, read-out: inhibition rate (%) 5-HT2A): 102%; IC50 (M1; 8 concentrations 10 to 0.0006 uM, read-out: 50% inhibitory concentration (IC50) M1): 370 nM; inhibition at 10 µM (M1; single concentration of 10 uM, read-out: inhibition rate (%) M1): 98%
